# From patent US5380713A, “Peptide aldehydes as antithrombotic agents” (Bristol-Myers Squibb Company, priority 1994, dated 1995)
# Non-standard residues stand in square brackets, D forms with d. Residues, ends and D or L forms follow the SMILES beside them. *: point of attachment. Hydrocinnamoyl = O=C(CCc1ccccc1)*; PhAc = O=C(Cc1ccccc1)*; Bz = O=C(c1ccccc1)*
# Tests used:
# human thrombin = target: T1, human thrombin (Homo sapiens, UniProt P00734); experiment: Thrombin clotting time in pooled human plasma, initial effect before incubation; assay type: biochemical; conditions: 3.3 U/ml human thrombin, 37° C.
# T1 construct: 10U/ml human thrombin
# Procedure: Clotting times were measured optically using the Medical Laboratory Automation Electra 700 (MLA 700). Test cuvettes contained 0.1 ml of pre-warmed Owren's buffer, 0.1 ml of the human plasma and 1.2 and 3.0 μl of the test compounds dissolved in water. The cuvette was then vortex mixed and placed on the MLA 700 sample wheel. Clotting time was determined at 37° C. after the addition of 0.1 ml of 10U/ml human thrombin (final concentration=3.3 U/ml).
# thrombin clotting time = experiment: Ex vivo clotting time prolongation after oral dosing of rats; assay type: in vivo, rat; conditions: rats dosed orally (p.o.), three per group; clotting time measured ex vivo
# Procedure: Human citrated plasma obtained from human volunteers or citrated plasma obtained from dosed animals (prepared as described below). 25 NIH Units/ml human α-thrombin in thrombin buffer for use with rat plasma. 10 NIH Units/ml human α-thrombin in thrombin buffer for use with human plasma. Dosing: Test compound was prepared just prior to dosing. Routinely the drugs are dissolved in water. Occasionally other vehicles are used, such as PEQ-200 stock solutions are vortex mixed and animals are dosed p.o. using a 3 ml syringe with an 18-19 gauge oral gavage needle or i.p. injection. Blood Drawing for Rats: After the appropriate time period, the animals were ether-anesthetized, and blood was drawn by cardiac puncture using 333 μl of 3.8% sodium citrate per 3 ml blood. […] Clotting times were determined by pipetting 0.1 ml of Owren's buffer (pre-warmed to 37° C.) and 0.1 ml of human or rat plasma into yellow sample cuvettes. For studies with human plasma 10 U/ml human thrombin (10 ml) was placed in the reservoir assembly station of the MLA 700. (Medical Laboratory Automation, Electra 700 Reservoir Assembly). For rat studies, the human thrombin concentration was 25 U/ml. The cuvettes were vortexed and then placed on the MLA 700 sample wheel. The coagulation timer (MLA 700) automatically dispenses 0.1 ml human thrombin into the sample in each cuvette. Detection of the fibrin clot was determined optically by the MLA 700. In separate studies, compounds were dosed orally (p.o.) to three rats in each study group. […] Consequently, they are useful in controlling blood coagulation in mammals including humans.
# [1] = Clotting time after incubation of compound in water at 40° C. (stability); assay type: physicochemical; conditions: 50 μM stock in deionized water, 0.25-24 hours, FIG. 1
# Procedure: CLOTTING TIME AFTER INCUBATION OF COMPOUND IN WATER AT 40° C.
# Fresh blood was drawn from two human donors into vacutainer tubes containing buffered sodium citrate (16 mg sodium citrate and 2.1 mg citric acid per 4.5 ml of blood). The tubes were centrifugated immediately at 1920×g for 15 minutes to obtain fresh platelet poor plasma. The plasma was pooled and 10 ml aliquots were divided into three test tubes. Two tubes were frozen and maintained at -20° C. for future use and one tube was kept on ice throughout testing.
# The compound of Example 14 and D-Phe-Pro-Arg aldehyde: H2 SO4 were prepared as stock solutions (50 μM) in deionized water. […] After the initial effect of these compounds on clotting time was determined, the compounds were placed in a 40° C. water bath for various time intervals (from 0.25-24 hours) and aliquots were withdrawn to determine the effect of the incubation on clotting time.
# Clotting times were measured optically using the Medical Laboratory Automation Electra 700 (MLA 700). Test cuvettes contained 0.1 ml of pre-warmed Owren's buffer, 0.1 ml of the human plasma and 1.2 and 3.0 μl of the test compounds dissolved in water. […] Clotting time was determined at 37° C. after the addition of 0.1 ml of 10U/ml human thrombin (final concentration=3.3 U/ml).
# The stability of the compounds of the present invention were measured or described in the biological procedures. […]
SMILES,final concentration which initially caused prolongation of clotting time to approximately three times control value (human thrombin) [µM],DTT (thrombin clotting time),stability in water (effect of incubation on clotting time) [1]
"N=C(N)NCCC[C@@H](C=O)NC(=O)[C@@H]1CCCN1C(=O)[C@H](N)Cc1ccccc1 [D-Phe-Pro-Arg aldehyde, D-Phe-Pro-Arg aldehyde: H2 SO4, reference compound]",0.5,,
"Cl.Cl.N=C(N)NCCC[C@@H](C=O)NC(=O)[C@@H]1CCCN1C(=O)CCc1cccnc1 [Example 8, N^α [N-(3-(3-Pyridyl)propanoyl)-L-Prolyl]-L-arginine aldehyde Dihydrochloride]",,~ 100 mg/kg,
"Cl.N=C(N)NCCC[C@@H](C=O)NC(=O)[C@@H]1CCCN1C(=O)c1ccccc1 [Example 9, Nα-[N-Benzoyl-L-prolyl]-L-arginine aldehyde Hydrochloride] (Bz-Pro-Arg-aldehyde)",,150 mg/kg,
"Cl.N=C(N)NCCC[C@@H](C=O)NC(=O)[C@@H]1CCCN1C(=O)Cc1ccccc1 [Example 12, N^α -[N-Phenylacetyl-L-prolyl]-L-arginine aldehyde Hydrochloride] (PhAc-Pro-Arg-aldehyde)",,100 mg/kg,
"Cl.N=C(N)NCCC[C@@H](C=O)NC(=O)[C@@H]1CCCN1C(=O)CCC1CCCCC1 [Example 13, N^α -[N-(3-Cyclohexylpropanoyl)-L-prolyl]-L-arginine aldehyde Hydrochloride]",,100 mg/kg,
"Cl.N=C(N)NCCC[C@@H](C=O)NC(=O)[C@@H]1CCCN1C(=O)CCc1ccccc1 [Example 14, N^α -[N-(3-Phenylpropanoyl)-L-prolyl]-L-arginine aldehyde Hydrochloride] (Hydrocinnamoyl-Pro-Arg-aldehyde)",0.2,60 mg/kg,more stable than the corresponding D-phe compound
"Cl.Cl.N=C(N)NCCC[C@@H](C=O)NC(=O)[C@@H]1CCCN1C(=O)[C@@H](Cc1ccccc1)NC(=O)CN [Example 16, N^α -[Glycl-D-phenylalanyl-L-prolyl]-L-arginine aldehyde Dihydrochloride] (H-G[dF]PR-aldehyde)",,50 mg/kg,
"C[C@H](NC(=O)[C@H](N)Cc1ccccc1)C(=O)N[C@H](C=O)CCCNC(=N)N.O=S(=O)(O)O [Example 19, N^α -[D-Phenylalanyl-L-alanyl]-L-arginine aldehyde Sulfate] (H-[dF]-Ala-Arg-aldehyde)",,110 mg/kg,
